Results taken from patent US20100130603A1, “MEDICAMENT FOR PROPHYLACTIC AND THERAPEUTIC TREATMENT OF DERMATOSIS RESULTING FROM EXCESSIVELY ADVANCED KERATINIZATION” (KYOTO UNIVERSITY, priority 2007, published 2010).

Tests used:
[1] = tested on: Serca2 gene; experiment: Serca2 mRNA induction in normal human epidermal keratinocytes (NHEK), Northern blotting; assay type: cell-based; details: for strength of Serca2 gene inducing action: comparison among inducers
Method: Normal human epidermal keratinocytes (NHEK) were cultured in a serum-free medium (KGM medium) from which only hydrocortisone was excluded. A test substance dissolved in dimethyl sulfoxide (DMSO) as a solvent was added to the medium and culture was continued, and amount of mRNA of Serca2 gene in the epidermal keratinocytes was quantified by Northern blotting after 3, 6, and 9 hours. […] RNA was extracted 0, 3, 6, 12, 18, 24, and 48 hours after the addition of WiN55,212-2 to the epidermal keratinocytes, and expression of Serca2 gene was observed by Northern blotting.
Test substances including various kinds of vanilloid agonists were examined in the same manner as that of Example 1.

[2] = tested on: ATP2A protein; experiment: ATP2A protein localization by immunostaining in skins of healthy persons transplanted to nude mice; assay type: in vivo; details: healthy human skin on nude mice, optimum concentration applied every day for 5 days
Text: Skins of healthy persons were transplanted to nude mice, and after one week under acceptance of graft, optimum concentrations of dihomo-γ-linolenoyldopamine, WIN55,212-2, DPTHF as a vanilloid antagonist, and DMSO (control) were each applied every day for 5 days. The skin samples where the application was made were fixed after biopsy, and localization of ATP2A protein was identified by immunostaining.

[3] = tested on: skin samples of healthy persons; experiment: Pathological changes by HE staining in skin samples of healthy persons under organ culture; assay type: cell-based; details: healthy human skin organ culture, optimum concentration, fixed after 24 to 48 hours
Method: Optimum concentrations of dihomo-γ-linolenoyldopamine, WIN55,212-2, DPTHF as a vanilloid antagonist, and DMSO (control) were each added to skin samples of healthy persons and kept under a state of organ culture in the same manner as in Example 3. The skin samples were fixed after 24 to 48 hours, and pathological changes were observed by HE staining.

[4] = tested on: skin samples of Darie's disease patients; experiment: Pathological changes by HE staining in skin of Darie's disease patients transplanted to nude mice, applied 5 days; assay type: in vivo, human skin transplanted to nude mice; details: Darie's disease patient skin on nude mice, optimum concentration applied every day for 5 days
Text: Skin samples of Darie's disease patients were collected under informed consent of the patients, and transplanted to nude mice, and after one week under acceptance of graft, optimum concentrations of dihomo-γ-linolenoyldopamine, WIN55,212-2, and DMSO (control) were each applied to the skin samples every day for 5 days. The skins where the application was made were fixed after biopsy, and pathological changes were observed by HE staining.

[5] = tested on: ATP2A2 mRNA; experiment: ATP2A2 mRNA expression in epidermal keratinocytes of Darier's disease patients, Northern blotting; assay type: cell-based, human; details: keratinocyte cell lines of 3 Darier's disease patients, 6 hours after treatment, 10^−6 to 10^−9 mol
Method: Epidermal keratinocytes were collected from skins of pathological lesions of 3 Darier's disease patients, and cultured to establish cell lines. The cells were treated with WIN55,212-2 or a vanilloid agonist (dihomo-γ-linolenoyldopamine or eicosa-11Z,14Z-dienoyldopamine), and after 6 hours, RNAs were extracted and the expression of ATP2A2 mRNA was observed by Northern blotting. […] When the epidermal keratinocytes of the other two Darie's disease patients were used, similar results were obtained.

[6] = tested on: skin samples of Darie's disease patients; experiment: Pathological examination of skin of Darie's disease patients transplanted to nude mice, applied 9 days; assay type: in vivo, human skin transplanted to nude mice; details: Darie's disease patient skin on nude mice, applied for 9 days in DMSO
Method: Skin samples of Darie's disease patients with an area of 1 to 2 cm square were transplanted to nude mice, and acceptance of graft was confirmed after 7 days. Thereafter WIN55,212-2 or dihomo-γ-linolenoyldopamine was applied for 5 to 9 days using dimethyl sulfoxide (DMSO) as a solvent, and effectiveness of the drugs was determined on the basis of pathological examinations. This method is effective for successful determination of efficacy of a drug under a condition closest to the affected patient's skin. […] Where a solvent (DMSO) was applied as the control, dyskeratosis, parakeratosis, and blistering remained, the granular layer remained disappeared, and pathological pictures of Darie's disease were observed even after the transplantation. It is considered that the medicament of the present invention has sufficient effectiveness on inflammatory keratosis such as psoriasis vulgaris, as well as on Darie's disease, because potent therapeutic effect that achieves successful recover of even the formation of normal granular layer was observed when the cannabinoid agonist was applied.

[7] = tested on: three-dimensionally cultured skin model of Darie's disease patients' keratinocytes; experiment: Darie's disease model skin by three-dimensional culture; assay type: cell-based, human; details: added to the medium; keratinocytes with fibroblasts or interstitial components; 5 to 11 days
Method: In order to construct a model skin of Darie's disease which is readily reproducible and can be repetitively applied for assays, a […] model skin was constructed by three-dimensional culture of a combination of cultured epidermal keratinocytes and fibroblasts of Darie's disease patients, or three-dimensional culture of a combination of cultured epidermal keratinocytes Darie's disease patients and interstitial components. WIN55,212-2 or dihomo-γ-linolenoyldopamine was added to the medium of the above model skin to confirm the actions thereof. […] With the DMSO treatment as a control, individual keratinization and acantholysis remained, and pathological conditions corresponding to the pathological pictures of Darie's disease were observed.

[8] = tested on: ATP2A protein; experiment: ATP2A protein localization by immunostaining in human skin under organ culture; assay type: cell-based; details: optimum concentration, fixed after 24 hours
Method: Human skin under a state of organ culture was added with optimum concentration of dihomo-γ-linolenoyldopamine or DMSO (control), and after 24 hours later, the skin was fixed, and then localization of ATP2A protein, which is the causative protein of Darie's disease, was identified by immunostaining.

[9] = vanilloid agonists, same manner as Example 1
[10] = synthetic cannabinoid agonists in DMSO, Northern blotting after 3, 6 and 9 hours

## NCCOB(c1ccccc1)c1ccccc1 [2-aminoethoxydiphenyl borate (2-APB), 2-aminoethoxydiphenyl borate]
[1]; [9]
  induction of Serca2 gene (mRNA): induced the Serca2 gene

## CCCCCCCCCC(=O)O[C@@H]1[C@@H](C)[C@@]2(O)[C@@H](C=C(CO)C[C@@]3(O)C(=O)C(C)=C[C@@H]23)[C@@H]2C(C)(C)[C@]12OC(=O)CCCCCCCCC [4-α-phorbol 12,13-didecanoate (4α-PDD), 4-α-phorbol 12,13-didecanoate]
[1]; [9]
  induction of Serca2 gene (mRNA): induced the Serca2 gene

## COc1ccc2c(c1)c(CC(=O)N1CCOCC1)c(C)n2C(=O)c1ccc(Cl)cc1 [BML-190]
[1]; [10]
  induction of Serca2 gene (mRNA): induction of Serca2 gene was induced

## c1ccc(C2(c3ccccc3)CCCO2)cc1 [DPTHF, diphenyltetrahydrofuran]
[1]; coexisting with vanilloid agonists (FIG. 7: dihomo-γ-linolenoyldopamine+DPTHF)
  inducing action of vanilloid agonists on Serca2 gene expression when the vanilloid antagonist coexisted: disappeared
[2]
  localization/expression of ATP2A protein by immunostaining: decrease of expression of ATP2A2 was observed
[3]
  pathological changes by HE staining: pathological images similar to those of Darie's disease such as individual keratinization and acantholysis were observed

## Cc1c(C(=O)c2cccc3ccccc23)c2cccc3c2n1[C@H](CN1CCOCC1)CO3 [WIN55,212-2]
[1]; [10]
  induction of Serca2 gene (mRNA): induction of Serca2 gene was induced
[2]
  localization/expression of ATP2A protein by immunostaining: excessively advanced expression in the basal layer was observed
[3]
  pathological changes by HE staining: remained in a state of physiological skin not distinguishable from healthy skins
[4]
  pathological changes by HE staining: these pathological changes characteristic to Darie's disease disappeared
[5]
  expression of ATP2A2 mRNA: concentration-dependent promotion of expression of ATP2A2 was observed
[6]
  pathological pictures (effectiveness by pathological examination): dyskeratosis, parakeratosis, and blistering were disappeared, and normal keratinization was observed with recovered granular layer
[7]
  pathological pictures in three-dimensional model skin: recovery of three-dimensional skin having quality similar to that of healthy skin was observed

## CCCCC/C=C\C/C=C\C/C=C\CCCCCCC(=O)NCCc1ccc(O)c(O)c1 [dihomo-γ-linolenoyldopamine]
[1]; vanilloid agonists
  strength of Serca2 gene inducing action: potent inducing action
[1]; [9]
  induction of Serca2 gene (mRNA): induced the Serca2 gene
[8]
  localization/expression of ATP2A protein by immunostaining: excessively advanced expression in the basal layer was observed
[2]
  localization/expression of ATP2A protein by immunostaining: excessively advanced expression in the basal layer was observed
[3]
  pathological changes by HE staining: remained in a state of physiological skin not distinguishable from healthy skins
[4]
  pathological changes by HE staining: these pathological changes characteristic to Darie's disease disappeared
[5]
  expression of ATP2A2 mRNA: concentration-dependent promotion of expression of ATP2A2 was observed
[6]
  pathological pictures (effectiveness by pathological examination): dyskeratosis and blistering disappeared, and the granular layer also slightly recovered, but keratinization accompanied by parakeratosis slightly remained
[7]
  pathological pictures in three-dimensional model skin: recovery of three-dimensional skin having quality similar to that of healthy skin was observed

## CC/C=C\C/C=C\C/C=C\C/C=C\C/C=C\C/C=C\CCC(=O)NCCc1ccc(O)c(O)c1 [docosahexaenoyldopamine]
[1]; [9]
  induction of Serca2 gene (mRNA): induced the Serca2 gene

## CCCCC/C=C\C/C=C\C/C=C\C/C=C\CCCCCC(=O)NCCc1ccc(O)c(O)c1 [docosatetra-7Z,10Z,13Z,16Z-enoyldopamine]
[1]; [9]
  induction of Serca2 gene (mRNA): induced the Serca2 gene

## CCCCC/C=C\C/C=C\CCCCCCCCCC(=O)NCCc1ccc(O)c(O)c1 [eicosa-11Z,14Z-dienoyldopamine]
[1]; vanilloid agonists
  strength of Serca2 gene inducing action: potent inducing action
[1]; [9]
  induction of Serca2 gene (mRNA): induced the Serca2 gene
[5]
  expression of ATP2A2 mRNA: concentration-dependent promotion of expression of ATP2A2 was observed

## CC/C=C\C/C=C\C/C=C\C/C=C\C/C=C\CCCC(=O)NCCc1ccc(O)c(O)c1 [eicosapentaenoyldopamine]
[1]; [9]
  induction of Serca2 gene (mRNA): induced the Serca2 gene

## CCCCC/C=C\C/C=C\C/C=C\C/C=C\CCCC(=O)N[C@H](C)CO [methanandamide]
[1]; [10]
  induction of Serca2 gene (mRNA): induction of Serca2 gene was induced

## CCCCC/C=C\C/C=C\C/C=C\CCCCC(=O)NCCc1ccc(O)c(O)c1 [γ-linolenoyldopamine]
[1]; vanilloid agonists
  strength of Serca2 gene inducing action: potent inducing action
[1]; [9]
  induction of Serca2 gene (mRNA): induced the Serca2 gene
